# Laboratory results reported in patent publication US20110269812A1, “NOVEL BENZYLIDENE-INDOLINONE AND THEIR MEDICAL AND DIAGNOSTIC USES” (Agency for Science, Technology and Research, priority 2008, published 2011).
# Like-named read-outs stand apart in the source and are kept apart here.
# What was measured:
# Tyro3 [1] = molecular target: T1, Tyro3 (Homo sapiens, UniProt Q06418); assay: Human phospho-RTK array, HuH7: Tyro-3; format: cell-based; details: 24 h, untreated 0.15
# T1 construct: we examined the constitutively phosphorylated IGF-1R, EphA2 and Tyro3; endogenous in cells; host or cells: HuH7
# T1 sequence (Q06418 41-890): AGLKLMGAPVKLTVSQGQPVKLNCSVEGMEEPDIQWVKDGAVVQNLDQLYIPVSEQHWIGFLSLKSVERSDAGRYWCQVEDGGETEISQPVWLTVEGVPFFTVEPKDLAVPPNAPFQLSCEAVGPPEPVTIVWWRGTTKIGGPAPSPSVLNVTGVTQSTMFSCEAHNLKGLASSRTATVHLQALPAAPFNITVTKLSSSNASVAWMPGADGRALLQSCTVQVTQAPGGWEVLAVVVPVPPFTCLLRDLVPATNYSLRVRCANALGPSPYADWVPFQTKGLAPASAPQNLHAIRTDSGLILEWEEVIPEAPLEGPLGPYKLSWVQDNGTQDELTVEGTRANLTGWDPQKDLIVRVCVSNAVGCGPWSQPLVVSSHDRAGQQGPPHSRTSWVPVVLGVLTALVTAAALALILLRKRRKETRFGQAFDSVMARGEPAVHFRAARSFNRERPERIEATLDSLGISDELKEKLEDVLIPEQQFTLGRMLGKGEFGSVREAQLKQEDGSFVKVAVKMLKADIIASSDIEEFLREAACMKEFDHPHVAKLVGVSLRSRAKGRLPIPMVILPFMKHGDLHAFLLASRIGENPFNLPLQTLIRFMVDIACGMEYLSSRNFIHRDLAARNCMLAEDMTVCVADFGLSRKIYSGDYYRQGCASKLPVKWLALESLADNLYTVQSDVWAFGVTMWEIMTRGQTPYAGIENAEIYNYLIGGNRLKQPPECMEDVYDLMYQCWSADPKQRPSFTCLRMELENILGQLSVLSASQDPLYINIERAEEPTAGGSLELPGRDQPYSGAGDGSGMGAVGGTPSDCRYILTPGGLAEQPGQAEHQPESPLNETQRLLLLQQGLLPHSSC
# Method: (§1) Kinase phosphorylation changes were determined with human phospho-RTK array.
# (§2) Cells harvesting, hybridization with RTK array and incubation with anti-phosphotyrosine were performed according to manufacturer's instruction. Imaging and quantification of the spots intensities was with Fujifilm LAS-3000 (Tokyo, Japan). Average signal of the duplicate spots for each RTK was determined.
# IGF-1R [2] = molecular target: T2, IGF-1R (Homo sapiens, UniProt P08069); assay: Human phospho-RTK array, HuH7: IGF-1R; format: cell-based; details: 24 h, untreated 0.19
# T2 construct: we examined the constitutively phosphorylated IGF-1R, EphA2 and Tyro3; endogenous in cells; host or cells: HuH7
# Method: as §1, §2
# Met = molecular target: T3, Met (Homo sapiens, UniProt P08581); assay: Human phospho-RTK array, HuH7: Met; format: cell-based; details: 24 h, untreated 0.05
# T3 construct: endogenous in cells; host or cells: HuH7
# Method: as §1, §2
# caspase-3 = assay: Caspase-3 activity assay in HuH7 and HepG2; format: cell-based, human; details: HuH7 and HepG2, 24 h, Ac-DEVD-AMC hydrolysis
# Method: HuH7 (darker bar) and HepG2 (lighter bar) cells treated as described in FIG. 4 were harvested for caspase-3 assay performed by the catalytic hydrolysis of fluorogenic Ac-DEVD-AMC. Results were expressed as a normalized RFU per μg lysate per h of incubation with the AMC substrate (n=3).
# Cells were subjected to Compound 47 treatment for 24 h prior to harvesting. Caspase-3 activities were determined by as previously described (Ho HK, Pok S, Streit S, Ruhe J E, Hart S, Lim K S, et al. Fibroblast growth factor receptor 4 regulates proliferation, anti-apoptosis and alpha-fetoprotein secretion during hepatocellular carcinoma progression and represents a potential target for therapeutic intervention. J Hepatol 2009 January; 50(1):118-127). Data were expressed as RFU/μg lysate/h incubation and error bars in terms of SD with n=3.
# Next, the mechanism of Compound 47's anti-proliferative effects was investigated. […] However, there was little effect on the mitochondrial apoptotic players Bax and BCL-xL.
# Tyro3 [3] = molecular target: T1, Tyro3; assay: Immunoprecipitation / anti-phosphotyrosine blot of Tyro3 in HuH7; format: cell-based; details: HuH7, 24 h; Compound 47 1, 5 or 10 μM, sunitinib 10 μM
# Hs817T = assay: Cell Titer-Glo viability, Hs817T; format: cell-based, human; details: 5 μM
# Method: (§3) The efficacy of compound 47 against HCC proliferation was tested on a wider panel of HCC cell lines: Hep3B ([…]), Hs817T (▪), PLC/PRF/5 (▴) and SK-Hep 1 (▾), as determined by Cell Titer-Glo assay.
# (§4) Cells were plated at 5000-7000 cells/per well and incubated for 24 h before treatment. […] Cell Titer-Glo (Promega, Madison, Wis.) assay was performed according to manufacturer's instruction with luminescence detected on SpectraMax M5 (Molecular Devices, Sunnyvale, Calif.). Data was expressed as percentage of viability vs. vehicle-treated controls.
# (§5) Accordingly, Compound 47 was screened against a larger panel of 4 additional HCC cell lines.
# EGFR [4] = molecular target: T4, EGFR (Homo sapiens, UniProt P00533); format: cell-based
# T4 construct: Cells treated similarly were immunoprecipitated with anti-EGFR, anti-EphA2 and anti-Tyro3; endogenous in cells; host or cells: HuH7
# AFP = AFP transcription in HuH7 by quantitative real-time PCR; format: cell-based, human; details: HuH7, 10 μM, 24 h, normalized against 18S mRNA
# IGF-1R [5] = molecular target: T2, IGF-1R; assay: Immunoblot of phospho-IGF-1R in HuH7; format: cell-based; details: HuH7, 24 h; Compound 47 1, 5 or 10 μM, sunitinib 10 μM
# EphA2 = molecular target: T5, EphA2 (Homo sapiens, UniProt P29317); assay: Immunoprecipitation / anti-phosphotyrosine blot of EphA2 in HuH7; format: cell-based; details: HuH7, 24 h; Compound 47 1, 5 or 10 μM, sunitinib 10 μM
# T5 construct: we examined the constitutively phosphorylated IGF-1R, EphA2 and Tyro3; endogenous in cells; host or cells: HuH7
# Her3 = molecular target: T6, Her3 (Homo sapiens, UniProt P21860); assay: Human phospho-RTK array, HuH7: Her3; format: cell-based; details: 24 h, untreated 0.05
# T6 construct: endogenous in cells; host or cells: HuH7
# Method: as §1, §2
# EGFR [6] = molecular target: T4, EGFR; format: cell-based; details: 24 h, untreated 0.15
# Method: as §1, §2
# Insulin R = molecular target: T7, Insulin R (Homo sapiens, UniProt P06213); assay: Human phospho-RTK array, HuH7: Insulin R; format: cell-based; details: 24 h, untreated 0.74
# T7 construct: endogenous in cells; host or cells: HuH7
# Method: as §1, §2
# [7] = test system: Hep3B, Hs817T, PLC/PRF/5 and SK-Hep 1; assay: Cell Titer-Glo viability, panel of 4 additional HCC cell lines; format: cell-based, human
# Method: as §3, §4, §5
# T4 sequence (P00533 25-1210): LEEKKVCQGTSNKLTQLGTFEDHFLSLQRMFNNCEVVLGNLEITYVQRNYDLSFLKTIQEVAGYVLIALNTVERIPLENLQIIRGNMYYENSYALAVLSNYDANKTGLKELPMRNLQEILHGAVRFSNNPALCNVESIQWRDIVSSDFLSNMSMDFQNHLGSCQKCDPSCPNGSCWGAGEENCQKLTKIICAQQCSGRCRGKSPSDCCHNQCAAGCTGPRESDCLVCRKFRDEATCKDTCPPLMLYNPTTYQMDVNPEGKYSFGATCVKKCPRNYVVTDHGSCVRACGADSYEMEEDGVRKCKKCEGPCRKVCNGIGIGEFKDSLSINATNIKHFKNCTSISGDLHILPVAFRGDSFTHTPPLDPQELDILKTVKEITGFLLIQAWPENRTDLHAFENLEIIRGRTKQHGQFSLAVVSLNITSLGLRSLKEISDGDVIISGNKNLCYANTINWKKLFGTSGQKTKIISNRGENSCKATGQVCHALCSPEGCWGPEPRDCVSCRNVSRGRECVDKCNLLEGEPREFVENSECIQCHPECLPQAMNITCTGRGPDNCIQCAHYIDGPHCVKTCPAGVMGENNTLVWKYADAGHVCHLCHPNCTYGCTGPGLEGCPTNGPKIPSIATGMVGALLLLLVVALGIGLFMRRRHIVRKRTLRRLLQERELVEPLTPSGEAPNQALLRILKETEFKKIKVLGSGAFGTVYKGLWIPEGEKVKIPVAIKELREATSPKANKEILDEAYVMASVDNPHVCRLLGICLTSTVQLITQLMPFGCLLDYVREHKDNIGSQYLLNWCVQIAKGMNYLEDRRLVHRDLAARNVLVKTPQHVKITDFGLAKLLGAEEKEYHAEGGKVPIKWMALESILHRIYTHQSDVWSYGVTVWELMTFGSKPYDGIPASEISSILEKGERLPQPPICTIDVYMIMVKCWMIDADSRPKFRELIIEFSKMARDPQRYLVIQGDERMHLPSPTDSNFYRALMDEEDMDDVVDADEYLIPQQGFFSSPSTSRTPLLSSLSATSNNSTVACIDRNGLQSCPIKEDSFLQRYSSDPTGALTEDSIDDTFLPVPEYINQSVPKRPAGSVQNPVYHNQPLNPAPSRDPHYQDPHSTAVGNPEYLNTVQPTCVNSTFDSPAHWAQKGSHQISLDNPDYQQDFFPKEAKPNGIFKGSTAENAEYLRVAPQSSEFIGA
# T3 sequence (P08581 25-1390): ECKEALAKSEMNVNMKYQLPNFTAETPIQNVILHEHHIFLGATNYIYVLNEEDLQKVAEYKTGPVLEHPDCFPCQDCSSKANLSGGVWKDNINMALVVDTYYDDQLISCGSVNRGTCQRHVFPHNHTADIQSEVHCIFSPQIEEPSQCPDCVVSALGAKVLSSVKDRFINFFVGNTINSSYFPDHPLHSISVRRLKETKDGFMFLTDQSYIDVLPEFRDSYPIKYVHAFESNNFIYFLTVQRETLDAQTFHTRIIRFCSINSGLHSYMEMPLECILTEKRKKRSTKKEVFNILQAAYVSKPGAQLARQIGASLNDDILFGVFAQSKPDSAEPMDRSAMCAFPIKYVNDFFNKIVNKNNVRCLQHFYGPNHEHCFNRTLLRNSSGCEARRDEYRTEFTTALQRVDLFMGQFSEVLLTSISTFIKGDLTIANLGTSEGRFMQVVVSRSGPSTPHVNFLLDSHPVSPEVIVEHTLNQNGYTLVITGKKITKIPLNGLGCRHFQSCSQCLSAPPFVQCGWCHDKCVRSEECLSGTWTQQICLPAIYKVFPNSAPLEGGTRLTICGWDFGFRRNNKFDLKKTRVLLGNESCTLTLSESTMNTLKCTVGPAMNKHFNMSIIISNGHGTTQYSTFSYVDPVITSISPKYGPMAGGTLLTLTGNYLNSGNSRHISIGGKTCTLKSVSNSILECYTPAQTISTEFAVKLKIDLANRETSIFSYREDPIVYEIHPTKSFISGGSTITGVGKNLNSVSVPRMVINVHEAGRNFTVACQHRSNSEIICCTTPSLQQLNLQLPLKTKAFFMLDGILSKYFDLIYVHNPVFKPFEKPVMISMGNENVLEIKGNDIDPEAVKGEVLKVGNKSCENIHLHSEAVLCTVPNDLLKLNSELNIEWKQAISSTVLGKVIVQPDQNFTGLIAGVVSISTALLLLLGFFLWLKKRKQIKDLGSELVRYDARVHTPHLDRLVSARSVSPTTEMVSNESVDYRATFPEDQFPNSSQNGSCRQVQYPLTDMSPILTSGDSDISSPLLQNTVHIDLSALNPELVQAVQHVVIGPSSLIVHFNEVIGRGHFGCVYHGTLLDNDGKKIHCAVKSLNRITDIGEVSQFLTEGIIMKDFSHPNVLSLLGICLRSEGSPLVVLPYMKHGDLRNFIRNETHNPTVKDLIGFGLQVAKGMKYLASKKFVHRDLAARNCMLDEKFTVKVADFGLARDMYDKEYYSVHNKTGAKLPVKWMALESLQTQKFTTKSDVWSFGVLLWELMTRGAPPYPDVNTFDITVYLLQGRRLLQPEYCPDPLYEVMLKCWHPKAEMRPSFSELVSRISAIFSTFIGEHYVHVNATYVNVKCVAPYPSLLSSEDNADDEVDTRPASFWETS
# T7 sequence (P06213 28-1382): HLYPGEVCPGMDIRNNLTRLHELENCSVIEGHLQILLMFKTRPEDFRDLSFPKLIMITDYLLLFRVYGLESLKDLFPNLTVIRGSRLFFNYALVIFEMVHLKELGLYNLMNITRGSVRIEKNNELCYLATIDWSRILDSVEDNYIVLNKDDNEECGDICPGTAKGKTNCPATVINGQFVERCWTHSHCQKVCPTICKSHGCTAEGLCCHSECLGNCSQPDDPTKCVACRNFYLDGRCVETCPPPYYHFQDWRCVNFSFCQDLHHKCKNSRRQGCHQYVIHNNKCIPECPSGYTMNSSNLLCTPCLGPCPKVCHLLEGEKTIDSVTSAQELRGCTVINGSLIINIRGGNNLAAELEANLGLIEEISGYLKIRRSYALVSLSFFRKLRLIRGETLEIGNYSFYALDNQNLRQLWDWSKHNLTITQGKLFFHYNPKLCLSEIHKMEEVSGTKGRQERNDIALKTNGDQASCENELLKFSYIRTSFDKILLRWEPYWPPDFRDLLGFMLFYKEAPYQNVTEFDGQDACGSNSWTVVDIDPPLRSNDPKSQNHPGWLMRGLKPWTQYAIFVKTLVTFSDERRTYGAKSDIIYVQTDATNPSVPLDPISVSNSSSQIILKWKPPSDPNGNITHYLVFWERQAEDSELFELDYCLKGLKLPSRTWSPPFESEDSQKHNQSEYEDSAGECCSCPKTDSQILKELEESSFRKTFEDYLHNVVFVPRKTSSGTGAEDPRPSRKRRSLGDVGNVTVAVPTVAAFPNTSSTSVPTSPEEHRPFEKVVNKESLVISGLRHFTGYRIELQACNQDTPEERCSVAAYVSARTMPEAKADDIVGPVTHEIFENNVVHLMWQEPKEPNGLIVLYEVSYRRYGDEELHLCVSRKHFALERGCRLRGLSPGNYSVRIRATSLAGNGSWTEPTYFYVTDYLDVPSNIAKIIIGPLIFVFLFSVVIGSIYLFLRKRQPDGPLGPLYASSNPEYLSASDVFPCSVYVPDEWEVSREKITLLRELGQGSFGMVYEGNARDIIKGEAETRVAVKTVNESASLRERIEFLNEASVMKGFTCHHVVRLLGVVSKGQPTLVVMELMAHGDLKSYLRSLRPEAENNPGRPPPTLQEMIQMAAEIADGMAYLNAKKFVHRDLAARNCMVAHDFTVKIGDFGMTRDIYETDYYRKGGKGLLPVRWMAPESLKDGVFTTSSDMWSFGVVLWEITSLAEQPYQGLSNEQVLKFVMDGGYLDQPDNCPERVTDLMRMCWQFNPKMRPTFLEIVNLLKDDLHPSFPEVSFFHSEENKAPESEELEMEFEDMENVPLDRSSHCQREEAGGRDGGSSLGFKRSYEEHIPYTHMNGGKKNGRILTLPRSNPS
# T5 sequence (P29317 24-976): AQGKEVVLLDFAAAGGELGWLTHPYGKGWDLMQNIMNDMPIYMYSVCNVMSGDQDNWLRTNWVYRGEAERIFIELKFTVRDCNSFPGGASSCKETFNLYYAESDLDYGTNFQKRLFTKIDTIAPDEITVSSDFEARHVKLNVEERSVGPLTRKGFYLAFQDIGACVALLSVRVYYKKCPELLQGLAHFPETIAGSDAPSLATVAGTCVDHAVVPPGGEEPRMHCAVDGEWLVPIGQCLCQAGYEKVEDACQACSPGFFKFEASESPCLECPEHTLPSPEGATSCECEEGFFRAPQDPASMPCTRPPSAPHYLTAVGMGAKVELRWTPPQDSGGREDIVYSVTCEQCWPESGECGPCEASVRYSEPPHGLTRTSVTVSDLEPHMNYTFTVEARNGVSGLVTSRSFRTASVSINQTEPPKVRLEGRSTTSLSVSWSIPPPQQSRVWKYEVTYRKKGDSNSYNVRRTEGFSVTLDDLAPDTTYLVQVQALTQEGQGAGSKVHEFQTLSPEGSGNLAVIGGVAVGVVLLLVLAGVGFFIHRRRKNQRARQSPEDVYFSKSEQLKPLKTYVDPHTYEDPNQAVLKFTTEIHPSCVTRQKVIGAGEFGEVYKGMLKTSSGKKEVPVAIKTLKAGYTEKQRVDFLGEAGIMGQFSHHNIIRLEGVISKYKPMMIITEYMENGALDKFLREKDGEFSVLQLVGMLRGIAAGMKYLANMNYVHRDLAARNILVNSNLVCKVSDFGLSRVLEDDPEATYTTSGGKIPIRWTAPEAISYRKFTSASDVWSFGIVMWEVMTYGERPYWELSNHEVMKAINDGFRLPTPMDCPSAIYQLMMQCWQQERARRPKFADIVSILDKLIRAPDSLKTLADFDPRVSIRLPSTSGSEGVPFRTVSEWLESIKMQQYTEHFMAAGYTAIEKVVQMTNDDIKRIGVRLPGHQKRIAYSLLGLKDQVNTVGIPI
smiles,measurement,setting,value
"O=C1Nc2cc(Cl)ccc2/C1=C\c1cccc(C(F)(F)F)c1 [Compound 47, (E)-6-Chloro-3-(3-(trifluoromethyl)benzylidene)indolin-2-one]",Tyro-3 Phosphorylation,"Tyro3 [1]; serum starved HuH7, 1 μM",0.10 Arbitrary units
same,Tyro-3 Phosphorylation,"Tyro3 [1]; serum starved HuH7, 5 μM",0.11 Arbitrary units
same,Tyro-3 Phosphorylation,"Tyro3 [1]; serum starved HuH7, 10 μM",0.07 Arbitrary units
same,IGF-1R Phosphorylation,"IGF-1R [2]; serum starved HuH7, 1 μM",0.22 Arbitrary units
same,IGF-1R Phosphorylation,"IGF-1R [2]; serum starved HuH7, 5 μM",0.13 Arbitrary units
same,IGF-1R Phosphorylation,"IGF-1R [2]; serum starved HuH7, 10 μM",0.07 Arbitrary units
same,Met Phosphorylation,"Met; serum starved HuH7, 1 μM",0.08 Arbitrary units
same,Met Phosphorylation,"Met; serum starved HuH7, 5 μM",0.05 Arbitrary units
same,Met Phosphorylation,"Met; serum starved HuH7, 10 μM",0.02 Arbitrary units
same,caspase-3 activity,caspase-3,activation
same,Tyro3 phosphorylation by immunoblot,Tyro3 [3],inhibited even at the lowest concentration used (1 μM)
same,viability Hs817T,Hs817T,undetectable viability
same,EGFR phosphorylation by immunoblot,EGFR [4],unexpected increase
same,AFP transcript vs untreated controls,AFP,significantly repressed to one-third
same,IGF-1R phosphorylation (Y980 and Y1135/1136) by immunoblot,IGF-1R [5],proportional reduction
same,EphA2 phosphorylation by immunoblot,EphA2,proportional reduction
same,Her3 Phosphorylation,"Her3; serum starved HuH7, 1 μM",0.07 Arbitrary units
same,Her3 Phosphorylation,"Her3; serum starved HuH7, 5 μM",0.04 Arbitrary units
same,Her3 Phosphorylation,"Her3; serum starved HuH7, 10 μM",0.03 Arbitrary units
same,EGFR Phosphorylation,"EGFR [6]; serum starved HuH7, 1 μM",0.19 Arbitrary units
same,EGFR Phosphorylation,"EGFR [6]; serum starved HuH7, 5 μM",0.44 Arbitrary units
same,EGFR Phosphorylation,"EGFR [6]; serum starved HuH7, 10 μM",0.53 Arbitrary units
same,Insulin R Phosphorylation,"Insulin R; serum starved HuH7, 1 μM",0.75 Arbitrary units
same,Insulin R Phosphorylation,"Insulin R; serum starved HuH7, 5 μM",0.4 Arbitrary units
same,Insulin R Phosphorylation,"Insulin R; serum starved HuH7, 10 μM",0.38 Arbitrary units
same,IC50 in 3 of the 4 additional HCC cell lines tested,[7],low micromolar or submicromolar
